Starred links: 1 amine or outer side, 2 acyl side, 3 side chain; linkers in the order of their positions; H or OH if unused. Positions of bridges follow the written chain, without caps; N, C: chain ends. Non-standard residues stand in square brackets, D forms with d. Residues, ends and D or L forms follow the SMILES beside them. *: point of attachment. Me3N+(CH2)2O(CH2)2O(CH2)2CO = C[N+](C)(C)CCOCCOCCC(=O)*; X39 = NCCc1cn(-c2ccc(C[C@H](N[*:1])C(=O)[*:2])cc2)nn1; Trp(7-Me) = Cc1cccc2c(C[C@H](N)C(=O)O)c[nH]c12; Abu(4-yl) = O=C([C@H](CC[*:3])N[*:1])[*:2]; dLys(Me3) = C[N+](C)(C)CCCC[C@@H](N)C(=O)O; 3Pal(5-Me) = Cc1cncc(C[C@H](N)C(=O)O)c1; 2Nal = N[C@@H](Cc1ccc2ccccc2c1)C(=O)O; AEF = NCCOc1ccc(C[C@H](N)C(=O)O)cc1; 3Pal = N[C@@H](Cc1cccnc1)C(=O)O; Lys(Me) = CNCCCC[C@H](N)C(=O)O; Pen = CC(C)(S)[C@H](N)C(=O)O; Thp = NC1(C(=O)O)CCOCC1; X3 = C[N+](C)(C)CCCCC*; Sar = CNCC(=O)O; X58 = NCCCCC*
Columns and labels:
IL-23R = target: T1, IL-23R (Homo sapiens, UniProt Q5VWK5); assay: IL23R Reporter Assay; type: cell-based; conditions: HEK293 cells containing IL-23R, IL-12RP1 and STAT-inducible firefly luciferase reporter; 10 ng/mL IL-23 (EC90); 5 h at 37° C.; read-out: IL23R Reporter Assay
T1 construct: host or cells: HEK293
T1 sequence (Q5VWK5 24-629): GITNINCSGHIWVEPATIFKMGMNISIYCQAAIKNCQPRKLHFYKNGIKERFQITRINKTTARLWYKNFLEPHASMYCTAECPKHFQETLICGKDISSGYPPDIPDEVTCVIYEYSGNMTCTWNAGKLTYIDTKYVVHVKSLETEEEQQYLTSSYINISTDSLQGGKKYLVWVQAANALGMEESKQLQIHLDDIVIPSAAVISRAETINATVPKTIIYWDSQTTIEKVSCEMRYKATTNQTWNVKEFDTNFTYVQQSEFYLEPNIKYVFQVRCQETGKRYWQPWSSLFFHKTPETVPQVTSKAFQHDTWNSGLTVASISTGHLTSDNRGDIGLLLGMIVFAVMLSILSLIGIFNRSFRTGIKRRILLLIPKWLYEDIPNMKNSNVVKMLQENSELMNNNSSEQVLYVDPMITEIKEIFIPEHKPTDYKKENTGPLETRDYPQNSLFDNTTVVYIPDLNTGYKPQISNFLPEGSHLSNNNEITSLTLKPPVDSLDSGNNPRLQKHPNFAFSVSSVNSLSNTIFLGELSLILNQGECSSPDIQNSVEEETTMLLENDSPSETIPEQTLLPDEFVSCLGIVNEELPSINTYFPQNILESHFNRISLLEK

[1] = Exposed Polar Surface Area (EPSA); type: physicochemical; conditions: SFC on Chirex 3014 column; sample 1 mM DMSO stock; read-out: EPSA
Procedure, shortened: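 EPSA, in Å^2, is read from SFC retention time through a linear relationship established with eight calibration standards. Separation uses a Chirex 3014 stationary phase, 35 °C, 14 MPa back pressure, and a 5–60% methanol/ammonium formate modifier gradient in CO2.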

An IC50 (IL-23R) of 1.6 nM and an EPSA [1] of 176 A^2 were found for CC(=O)NCCCC[C@@H]1NC(=O)[C@H](Cc2c[nH]c3c(C)cccc23)NC(=O)[C@H]([C@@H](C)O)NC(=O)[C@H](CC(N)=O)NC(=O)[C@@H](NC(=O)CCOCCOCC[N+](C)(C)C)C(C)(C)SSC(C)(C)[C@@H](C(=O)N[C@@H](Cc2ccc(-n3cc(CCN)nn3)cc2)C(=O)N[C@@H](Cc2ccc3ccccc3c2)C(=O)NC2(C(=O)N[C@@H](CCCCNC(C)=O)C(=O)N[C@@H](CC(N)=O)C(=O)N[C@@H](Cc3cccnc3)C(=O)N(C)CC(N)=O)CCOCC2)NC1=O [compound 522, cPEG3aCO-Pen(3)-N-T-7MeW-K(Ac)-Pen(3)-F(4TzlAme2)-2Nal-THP-K(Ac)-N-3Pya-Sar-CONH2] ({Me3N+(CH2)2O(CH2)2O(CH2)2CO}-[Pen]NT[Trp(7-Me)]K(Ac)[Pen][X39][2Nal][Thp]K(Ac)N[3Pal][Sar]-NH2; disulfide 1-6) in this work.
An IC50 (IL-23R) of 5.2 nM and an EPSA [1] of 154 A^2 were found for CC(=O)N(C)CCCC[C@@H]1NC(=O)[C@H](Cc2c[nH]c3c(C)cccc23)NC(=O)[C@H]([C@@H](C)O)NC(=O)[C@H](CC(=O)N(C)C)NC(=O)[C@@H](NC(=O)CCOCCOCC[N+](C)(C)C)CCSC[C@@H](C(=O)N[C@@H](Cc2ccc(OCCCCC[N+](C)(C)C)cc2)C(=O)N[C@@H](Cc2ccc3ccccc3c2)C(=O)NC2(C(=O)N[C@@H](CCCCN(C)C(C)=O)C(=O)N[C@@H](CC(N)=O)C(=O)N[C@@H](Cc3cccnc3)C(=O)N(C)CC(=O)N(C)C)CCOCC2)NC1=O [compound 523, cPEG3aCO-Abu(1)-N(N(Me)2)-T-7MeW-K(NMeAc)-C(1)-TMAPF-2Nal-THP-K(NMeAc)-N-3Pya-Sar-CON(Me)2] ({Me3N+(CH2)2O(CH2)2O(CH2)2CO}-[Abu(4-yl)]D(NMe2)T[Trp(7-Me)][Lys(Me)](Ac)CY(X3)[2Nal][Thp][Lys(Me)](Ac)N[3Pal][Sar]-NMe2; thioether 1-6) in this work.
An IC50 (IL-23R) of 54 nM and an EPSA [1] of 198 A^2 were found for CC(=O)NCCCC[C@@H]1NC(=O)[C@H](Cc2c[nH]c3c(C)cccc23)NC(=O)[C@H]([C@@H](C)O)NC(=O)[C@H](CC(N)=O)NC(=O)[C@@H](NC(=O)COc2ccc(-c3ccc(F)cc3F)cc2C(=O)O)C(C)(C)SSC(C)(C)[C@@H](C(=O)N[C@@H](Cc2ccc(OCCCCC[N+](C)(C)C)cc2)C(=O)N[C@@H](Cc2ccc3ccccc3c2)C(=O)NC2(C(=O)N[C@@H](CCCCNC(=O)CCCc3ccc(I)cc3)C(=O)N[C@@H](CC(N)=O)C(=O)N[C@@H](Cc3cccnc3)C(=O)N(C)CC(N)=O)CCOCC2)NC1=O [compound 524, DFNCO-Pen(3)-N-T-7MeW-K(Ac)-Pen(3)-TMAPF-2Nal-THP-K(IPB)-N-3Pya-Sar-CONH2] in this work.
An IC50 (IL-23R) of 51 nM and an EPSA [1] of 195 A^2 were found for CC(=O)NCCCC[C@@H]1NC(=O)[C@H](Cc2c[nH]c3c(C)cccc23)NC(=O)[C@H]([C@@H](C)O)NC(=O)[C@H](CC(N)=O)NC(=O)[C@@H](NC(=O)CCCc2ccc(I)cc2)C(C)(C)SSC(C)(C)[C@@H](C(=O)N[C@@H](Cc2ccc(OCCCCC[N+](C)(C)C)cc2)C(=O)N[C@@H](Cc2ccc3ccccc3c2)C(=O)NC2(C(=O)N[C@@H](CCCCNC(=O)COc3ccc(-c4ccc(F)cc4F)cc3C(=O)O)C(=O)N[C@@H](CC(N)=O)C(=O)N[C@@H](Cc3cccnc3)C(=O)N(C)CC(N)=O)CCOCC2)NC1=O [compound 525, IPBCO-Pen(3)-N-T-7MeW-K(Ac)-Pen(3)-TMAPF-2Nal-THP-K(DFN)-N-3Pya-Sar-CONH2] in this work.
An IC50 (IL-23R) of 6.1 nM and an EPSA [1] of 184 A^2 were found for CC(=O)NCCCC[C@@H]1NC(=O)[C@H](Cc2c[nH]c3c(C)cccc23)NC(=O)[C@H]([C@@H](C)O)NC(=O)[C@H](CC(N)=O)NC(=O)[C@@H](NC(C)=O)C(C)(C)SSC(C)(C)[C@@H](C(=O)N[C@@H](Cc2ccc(OCCCCC[N+](C)(C)C)cc2)C(=O)N[C@@H](Cc2ccc3ccccc3c2)C(=O)NC2(C(=O)N[C@@H](CCCCNC(=O)COc3ccc(-c4ccc(F)cc4F)cc3C(=O)O)C(=O)N[C@@H](CC(N)=O)C(=O)N[C@@H](Cc3cccnc3)C(=O)N(C)CC(N)=O)CCOCC2)NC1=O [compound 526, MeCO-Pen(3)-N-T-7MeW-K(Ac)-Pen(3)-TMAPF-2Nal-THP-K(DFN)-N-3Pya-Sar-CONH2] in this work.
An IC50 (IL-23R) of 3.7 nM and an EPSA [1] of 189 A^2 were found for CC(=O)NCCCC[C@@H]1NC(=O)[C@H](Cc2c[nH]c3c(C)cccc23)NC(=O)[C@H]([C@@H](C)O)NC(=O)[C@H](CC(N)=O)NC(=O)[C@@H](NC(=O)COc2ccc(-c3ccc(F)cc3F)cc2C(=O)O)C(C)(C)SSC(C)(C)[C@@H](C(=O)N[C@@H](Cc2ccc(OCCCCC[N+](C)(C)C)cc2)C(=O)N[C@@H](Cc2ccc3ccccc3c2)C(=O)NC2(C(=O)N[C@@H](CCCCNC(C)=O)C(=O)N[C@@H](CC(N)=O)C(=O)N[C@@H](Cc3cccnc3)C(=O)N(C)CC(N)=O)CCOCC2)NC1=O [compound 527, DFNCO-Pen(3)-N-T-7MeW-K(Ac)-Pen(3)-TMAPF-2Nal-THP-K(Ac)-N-3Pya-Sar-CONH2] in this work.
An IC50 (IL-23R) of 3.8 nM and an EPSA [1] of 163 A^2 were found for CC(=O)N(C)CCCC[C@@H]1NC(=O)[C@H](Cc2c[nH]c3c(C)cccc23)NC(=O)[C@H]([C@@H](C)O)NC(=O)[C@H](CC(=O)N(C)C)NC(=O)[C@@H](NC(=O)CCOCCOCC[N+](C)(C)C)C(C)(C)SSC(C)(C)[C@@H](C(=O)N[C@@H](Cc2ccc(OCCCCCN)cc2)C(=O)N[C@@H](Cc2ccc3ccccc3c2)C(=O)NC2(C(=O)N[C@@H](CCCCN(C)C(C)=O)C(=O)N[C@@H](CC(N)=O)C(=O)N[C@@H](Cc3cccnc3)C(=O)N(C)CC(=O)N(C)C)CCOCC2)NC1=O [compound 528, cPEG3aCO-Pen(3)-N(N(Me)2)-T-7MeW-K(NMeAc)-Pen(3)-APF-2Nal-THP-K(NMeAc)-N-3Pya-Sar-CON(Me)2] ({Me3N+(CH2)2O(CH2)2O(CH2)2CO}-[Pen]D(NMe2)T[Trp(7-Me)][Lys(Me)](Ac)[Pen]Y(X58)[2Nal][Thp][Lys(Me)](Ac)N[3Pal][Sar]-NMe2; disulfide 1-6) in this work.
An IC50 (IL-23R) of 0.9 nM and an EPSA [1] of 171 A^2 were found for CC(=O)NCCCC[C@@H]1NC(=O)[C@H](Cc2c[nH]c3c(C)cccc23)NC(=O)[C@H]([C@@H](C)O)NC(=O)[C@H](CC(N)=O)NC(=O)[C@@H](NC(=O)[C@@H](CCCNC(=N)N)NC(C)=O)C(C)(C)SSC(C)(C)[C@@H](C(=O)N[C@@H](Cc2ccc(OCCCCC[N+](C)(C)C)cc2)C(=O)N[C@@H](Cc2ccc3ccccc3c2)C(=O)NC2(C(=O)N[C@@H](CCCCNC(C)=O)C(=O)N[C@@H](CC(N)=O)C(=O)N[C@@H](Cc3cncc(C)c3)C(=O)N(C)CC(N)=O)CCOCC2)NC1=O [compound 532, MeCO-r-Pen(3)-N-T-7MeW-K(Ac)-Pen(3)-TMAPF-2Nal-THP-K(Ac)-N-5MePyridinAla-Sar-CONH2] (Ac-[dR][Pen]NT[Trp(7-Me)]K(Ac)[Pen]Y(X3)[2Nal][Thp]K(Ac)N[3Pal(5-Me)][Sar]-NH2; disulfide 2-7) in this work.
An IC50 (IL-23R) of 1.6 nM and an EPSA [1] of 170 A^2 were found for CC(=O)NCCCC[C@@H]1NC(=O)[C@H](Cc2c[nH]c3c(C)cccc23)NC(=O)[C@H]([C@@H](C)O)NC(=O)[C@H](CC(N)=O)NC(=O)[C@@H](NC(=O)[C@@H](CCCC[N+](C)(C)C)NC(C)=O)C(C)(C)SSC(C)(C)[C@@H](C(=O)N[C@@H](Cc2ccc(OCCN)cc2)C(=O)N[C@@H](Cc2ccc3ccccc3c2)C(=O)NC2(C(=O)N[C@@H](CCCCNC(C)=O)C(=O)N[C@@H](CC(N)=O)C(=O)N[C@@H](Cc3cncc(C)c3)C(=O)N(C)CC(N)=O)CCOCC2)NC1=O [compound 533, MeCO-k(Me)3-Pen(3)-N-T-7MeW-K(Ac)-Pen(3)-AEF-2Nal-THP-K(Ac)-N-5MePyridinAla-Sar-CONH2] (Ac-[dLys(Me3)][Pen]NT[Trp(7-Me)]K(Ac)[Pen][AEF][2Nal][Thp]K(Ac)N[3Pal(5-Me)][Sar]-NH2; disulfide 2-7) in this work.

Source: patent US20260022143A1, “Cyclic Peptide Inhibitors of IL-23” (JANSSEN PHARMACEUTICA NV, priority 2022, published 2026)
